66 compounds from ChEMBL document CHEMBL3714729, “Heterocyclic compounds for the inhibition of pask” (2012) can be followed below.

pIC50: −log10 of the molar value.

In this experiment the target is PAS domain-containing serine/threonine-protein kinase (Homo sapiens, UniProt Q96RG2). Briefly: Inhibition of human recombinant PASK using Ulight-peptide substrate incubated for 2 hrs by TR-FRET assay.
Chain of PAS domain-containing serine/threonine-protein kinase (Q96RG2 whole entry, the tested form may be a part): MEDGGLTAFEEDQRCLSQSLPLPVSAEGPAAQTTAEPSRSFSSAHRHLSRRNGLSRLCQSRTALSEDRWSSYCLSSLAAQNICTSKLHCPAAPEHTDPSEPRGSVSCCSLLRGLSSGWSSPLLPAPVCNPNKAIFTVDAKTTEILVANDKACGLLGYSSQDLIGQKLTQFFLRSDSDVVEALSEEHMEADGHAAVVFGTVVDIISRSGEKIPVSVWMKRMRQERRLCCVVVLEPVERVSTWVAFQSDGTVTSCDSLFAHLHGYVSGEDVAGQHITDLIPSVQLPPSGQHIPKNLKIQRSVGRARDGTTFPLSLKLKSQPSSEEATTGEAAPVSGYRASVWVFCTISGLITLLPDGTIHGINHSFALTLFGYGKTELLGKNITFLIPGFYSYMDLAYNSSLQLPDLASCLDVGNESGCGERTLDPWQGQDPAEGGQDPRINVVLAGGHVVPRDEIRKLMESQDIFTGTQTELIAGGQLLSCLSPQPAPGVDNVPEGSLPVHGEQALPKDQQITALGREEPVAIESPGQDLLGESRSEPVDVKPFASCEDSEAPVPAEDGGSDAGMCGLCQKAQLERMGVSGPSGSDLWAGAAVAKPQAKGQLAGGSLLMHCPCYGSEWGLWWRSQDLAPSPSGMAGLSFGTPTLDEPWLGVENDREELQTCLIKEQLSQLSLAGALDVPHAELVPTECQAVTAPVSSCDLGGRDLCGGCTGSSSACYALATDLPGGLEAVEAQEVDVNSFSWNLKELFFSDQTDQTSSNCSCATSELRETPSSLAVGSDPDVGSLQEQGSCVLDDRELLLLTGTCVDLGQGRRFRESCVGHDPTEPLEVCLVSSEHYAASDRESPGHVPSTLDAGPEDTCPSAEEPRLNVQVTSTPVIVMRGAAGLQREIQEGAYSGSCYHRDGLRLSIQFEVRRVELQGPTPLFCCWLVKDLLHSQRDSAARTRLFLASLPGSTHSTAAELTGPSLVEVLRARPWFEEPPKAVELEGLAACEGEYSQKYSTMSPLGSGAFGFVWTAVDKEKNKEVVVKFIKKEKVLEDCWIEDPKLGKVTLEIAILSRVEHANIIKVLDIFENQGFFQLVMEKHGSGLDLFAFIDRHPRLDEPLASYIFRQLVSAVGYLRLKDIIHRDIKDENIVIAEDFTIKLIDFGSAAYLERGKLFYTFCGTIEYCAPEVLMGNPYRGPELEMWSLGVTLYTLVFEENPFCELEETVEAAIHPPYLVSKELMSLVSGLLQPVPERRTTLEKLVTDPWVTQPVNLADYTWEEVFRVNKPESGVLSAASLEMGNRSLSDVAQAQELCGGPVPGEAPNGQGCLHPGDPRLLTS
Turning to `O=c1cc(-c2ccc3c(c2)OCCO3)[nH]c2c(-c3cccnc3)c(O)nn12`, the pIC50 is ≥ 5.00.

In the case of `O=c1cc(-c2ccccc2)[nH]c2c(-c3cccnc3)c(O)nn12`, the negative logarithm of the IC50 (pIC50) was ≥ 5.00.

Turning to `Nc1nn2c(=O)cc(-c3ccc4occc4c3)[nH]c2c1-c1ccccn1`, the negative-log IC50 (pIC50) was ≥ 5.00.

Regarding `CCC(=O)Nc1nn2c(=O)cc(-c3ccc4c(c3)OCO4)[nH]c2c1-c1ccccn1`, the pIC50 is ≥ 5.00.

For the compound `Cc1nn2c(=O)cc(-c3ccc(O)cc3)[nH]c2c1-c1ccccc1`, the negative logarithm of the IC50 (pIC50) was ≥ 5.00.

Consider `O=c1cc(-c2ccc3c(c2)OCCO3)[nH]c2c(-c3ccc(Br)cc3)cnn12`, for which the negative-log IC50 (pIC50) was ≥ 5.00.

Take `COc1ccc(-c2c(C)nn3c(=O)cc(-c4ccc5c(c4)OCCO5)[nH]c23)cc1`: the pIC50 is ≥ 5.00.

For the compound `O=c1cc(-c2ccc3c(c2)OCCO3)[nH]c2c(-c3ccc(F)cc3)cnn12`, the negative logarithm of the IC50 (pIC50) is ≥ 5.00.

Regarding `Cc1nn2c(=O)cc(-c3ccc4[nH]nnc4c3)[nH]c2c1-c1ccccn1`, the pIC50 was ≥ 5.00.

For the compound `CCc1nn2c(=O)cc(-c3ccc(Cl)cc3)[nH]c2c1-c1ccccn1`, the pIC50 was ≥ 5.00.

Consider `Nc1nn2c(=O)cc(-c3ccc(F)cc3F)[nH]c2c1-c1ccccn1`, for which the pIC50 is ≥ 5.00.

In the case of `COc1nn2c(=O)cc(-c3ccc4c(c3)OCO4)[nH]c2c1-c1ccccn1`, the pIC50 was ≥ 5.00.

As for `Cc1n[nH]c2ccc(-c3cc(=O)n4nc(N)c(-c5ccccn5)c4[nH]3)cc12`, the negative logarithm of the IC50 (pIC50) is ≥ 5.00.

Consider `O=c1cc(-c2ccc3[nH]nnc3c2)[nH]c2c(Cc3ccccc3)c(O)nn12`, for which the pIC50 was ≥ 5.00.

For the compound `O=C(O)c1cnn2c(=O)cc(-c3ccc4c(c3)OCCO4)[nH]c12`, the pIC50 was ≥ 5.00.

Regarding `CCCc1cnn2c(=O)cc(-c3ccc4c(c3)OCO4)[nH]c12`, the pIC50 is ≥ 5.00.

Turning to `COc1ccc(-c2c(C)nn3c(=O)cc(-c4ccc5ncccc5c4)[nH]c23)cc1`, the negative-log IC50 (pIC50) is ≥ 5.00.

Turning to `CCc1nn2c(=O)cc(-c3ccc4c(cnn4C)c3)[nH]c2c1-c1ccccn1`, the pIC50 is ≥ 5.00.

On to `CCc1nn2c(=O)cc(-c3ccc4[nH]nnc4c3)[nH]c2c1-c1ccccc1`, for which the pIC50 is ≥ 5.00.

Turning to `COc1ccc(-c2cnn3c(=O)cc(-c4ccc5c(c4)OCCO5)[nH]c23)cc1`, the pIC50 was ≥ 5.00.

Turning to `Cn1ncc2cc(-c3cc(=O)n4ncc(-c5ccccn5)c4[nH]3)ccc21`, the pIC50 was ≥ 5.00.

For the compound `CCn1ncc2cc(-c3cc(=O)n4nc(NC(C)=O)c(-c5ccccn5)c4[nH]3)ccc21`, the pIC50 is ≥ 5.00.

Regarding `O=c1cc(-c2ccc3c(c2)OCCO3)[nH]c2c(-c3ccc(N4CCOCC4)nc3)cnn12`, the pIC50 is ≥ 5.00.

In the case of `O=c1cc(-c2ccc3[nH]nnc3c2)[nH]c2c(-c3ccccn3)cnn12`, the pIC50 was ≥ 5.00.

As to `Nc1nn2c(=O)cc(-c3cc4ccccc4o3)[nH]c2c1-c1ccccn1`, the pIC50 is ≥ 5.00.

Turning to `CCC(=O)Nc1nn2c(=O)cc(-c3ccc4nn[nH]c4c3)[nH]c2c1-c1ccccn1`, the negative-log IC50 (pIC50) was ≥ 5.00.

For `Cc1nn2c(=O)cc(-c3ccc4[nH]nnc4c3)[nH]c2c1Cc1ccccc1`, the pIC50 was ≥ 5.00.

As for `O=C(c1cnn2c(=O)cc(-c3ccc4c(c3)OCCO4)[nH]c12)N1CCCC1`, the negative-log IC50 (pIC50) was ≥ 5.00.

Regarding `Cc1nn2c(=O)cc(-c3ccc4[nH]nnc4c3)[nH]c2c1-c1ccccc1`, the negative logarithm of the IC50 (pIC50) was ≥ 5.00.

Turning to `Cc1cc2cc(-c3cc(=O)n4ncc(-c5ccccn5)c4[nH]3)ccc2o1`, the negative logarithm of the IC50 (pIC50) was ≥ 5.00.

On to `O=c1cc(-c2ccc(Cl)cc2)[nH]c2c(Cc3ccccc3)cnn12`, for which the negative logarithm of the IC50 (pIC50) was ≥ 5.00.

In the case of `Cc1ccc(-c2cc(=O)n3ncc(-c4ccccn4)c3[nH]2)cc1`, the pIC50 is ≥ 5.00.

For the compound `Nc1nn2c(=O)cc(-c3ccc(Cl)c(Cl)c3)[nH]c2c1-c1ccccn1`, the negative-log IC50 (pIC50) is ≥ 5.00.

For the compound `N#Cc1c(O)nn2c(=O)cc(-c3ccc(Cl)cc3)[nH]c12`, the negative logarithm of the IC50 (pIC50) was ≥ 5.00.

Consider `O=c1cc(-c2ccc3c(c2)OCO3)[nH]c2c(Cc3ccccn3)cnn12`, for which the pIC50 was ≥ 5.00.

As to `Nc1nn2c(=O)cc(-c3ccc4[nH]nnc4c3)[nH]c2c1Cc1ccccc1`, the pIC50 was ≥ 5.00.

Regarding `O=c1cc(-c2ccc(Cl)cc2Cl)[nH]c2c(-c3ccccn3)cnn12`, the negative-log IC50 (pIC50) was ≥ 5.00.

Take `COc1nn2c(=O)cc(-c3ccc(Cl)cc3)[nH]c2c1C#N`: the negative-log IC50 (pIC50) was ≥ 5.00.

As to `O=c1cc(-c2ccc(C(F)(F)F)cc2)[nH]c2c(-c3ccccn3)cnn12`, the pIC50 was ≥ 5.00.

As to `O=c1cc(-c2cccc(F)c2)[nH]c2c(-c3ccccn3)cnn12`, the negative logarithm of the IC50 (pIC50) was ≥ 5.00.

Turning to `O=c1cc(-c2ccc(F)cc2F)[nH]c2c(-c3ccccn3)cnn12`, the pIC50 was ≥ 5.00.

In the case of `Cc1nn2c(=O)cc(-c3ccc4ncccc4c3)[nH]c2c1-c1ccc(F)cc1`, the negative-log IC50 (pIC50) was ≥ 5.00.

As for `Cc1cc2cc(-c3cc(=O)n4nc(N)c(-c5ccccn5)c4[nH]3)ccc2o1`, the pIC50 was ≥ 5.00.

Turning to `Cn1ncc2cc(-c3cc(=O)n4nc(N)c(-c5ccccn5)c4[nH]3)ccc21`, the pIC50 was ≥ 5.00.

On to `Nc1nn2c(c1-c1ccccn1)CC(c1ccc3c(c1)OC(F)(F)O3)=CC2=O`, for which the negative logarithm of the IC50 (pIC50) is ≥ 5.00.

For the compound `O=c1cc(-c2ccccc2)[nH]c2c(-c3ccc(O)nc3)cnn12`, the pIC50 is ≥ 5.00.

Regarding `Cn1nnc2cc(-c3cc(=O)n4nc(N)c(-c5ccccn5)c4[nH]3)ccc21`, the pIC50 is ≥ 5.00.

For `COc1cc(Cl)ccc1-c1cc(=O)n2ncc(-c3ccccn3)c2[nH]1`, the negative logarithm of the IC50 (pIC50) is ≥ 5.00.

With `O=c1cc(-c2ccc3c(c2)OCCO3)[nH]c2c(-c3cccc(Cl)c3)cnn12`, the pIC50 was ≥ 5.00.

In the case of `CCCNC(=O)c1c(N)nn2c(=O)cc(-c3ccc4c(c3)OCO4)[nH]c12`, the pIC50 is ≥ 5.00.

Take `CC(=O)Nc1nn2c(=O)cc(-c3ccc4[nH]nnc4c3)[nH]c2c1-c1ccccn1`: the pIC50 was ≥ 5.00.

Take `CS(=O)(=O)c1ccc(-c2cc(=O)n3ncc(-c4ccccn4)c3[nH]2)cc1`: the negative-log IC50 (pIC50) was ≥ 5.00.

Turning to `CCc1nn2c(=O)cc(-c3ccc4[nH]ncc4c3)[nH]c2c1-c1ccccn1`, the pIC50 is ≥ 5.00.

On to `O=c1cc(-c2ccc3[nH]nnc3c2)[nH]c2c(Cc3ccccc3)cnn12`, for which the pIC50 is ≥ 5.00.

As to `Nc1nn2c(=O)cc(-c3cccc(F)c3)[nH]c2c1-c1ccccn1`, the negative logarithm of the IC50 (pIC50) was ≥ 5.00.

Take `Nc1nn2c(=O)cc(-c3ccc(C(F)(F)F)cc3)[nH]c2c1-c1ccccn1`: the pIC50 was ≥ 5.00.

For `COc1cc(OC)cc(-c2cc(=O)n3ncc(-c4ccccn4)c3[nH]2)c1`, the negative-log IC50 (pIC50) is ≥ 5.00.

`Cc1coc2ccc(-c3cc(=O)n4nc(N)c(-c5ccccn5)c4[nH]3)cc12`: the negative logarithm of the IC50 (pIC50) is ≥ 5.00.

`Cc1nn2c(=O)cc(-c3ccc4[nH]ccc4c3)[nH]c2c1-c1ccccc1`: the pIC50 is ≥ 5.00.

As for `CC(=O)Nc1nn2c(=O)cc(-c3ccc4[nH]ncc4c3)[nH]c2c1-c1ccccn1`, the pIC50 was ≥ 5.00.

Take `COc1ccc(-c2cnn3c(=O)cc(-c4ccccc4)[nH]c23)cn1`: the pIC50 is ≥ 5.00.

Turning to `O=c1cc(-c2ccccc2)[nH]c2c(-c3ccc(N4CCCCC4)nc3)cnn12`, the negative-log IC50 (pIC50) is ≤ 5.00.

For `Cc1n[nH]c2ccc(-c3cc(=O)n4ncc(-c5ccccn5)c4[nH]3)cc12`, the pIC50 is ≥ 5.00.

On to `CC(C)C(=O)Nc1nn2c(=O)cc(-c3ccc4c(c3)OCO4)[nH]c2c1-c1ccccn1`, for which the negative-log IC50 (pIC50) is ≥ 5.00.

Turning to `Cn1nnc2cc(-c3cc(=O)n4ncc(-c5ccccn5)c4[nH]3)ccc21`, the pIC50 is ≥ 5.00.

Consider `O=c1cc(-c2ccc(Cl)cc2F)[nH]c2c(-c3ccccn3)cnn12`, for which the negative-log IC50 (pIC50) was ≥ 5.00.
